Reference: patent publication EP4781984A1 (Beyang Therapeutics Co., Ltd., priority 2023, dated 2025)
pIC50: −log10 of the molar value. “Also recorded” adds a separate entry of the source.

Tests used:
[1] = Thermodynamic solubility test; assay type: physicochemical; conditions: buffer solution, aqueous buffer, thermodynamic from solid; positive compound
Outline: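 Samples sonicated 10 min, shaken 8 h at room temperature, re-sonicated and centrifuged at 13000 rpm for 15 min. Supernatant recentrifuged and analysed by LC-MS, with concentrations quantified against a 3–5 point calibration curve.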

[2] = background statement on the known drug; cited from earlier work
[3] = Plasma and ocular tissue distribution after single ocular administration in Dutch Belted rabbits (Example 6); assay type: in vivo; conditions: single eye drop 1 mg/mL (0.05 mg/eye, 50 µL/eye), 0.5, 4 or 8 hours
Description: Detection of Plasma and Ocular Tissue Distribution of Compounds after Single Ocular Administration in Dutch Belted Rabbits
Age-related macular degeneration and diabetic retinopathy are associated with neovascularization in the posterior segment of the eye. A major problem with topical eye drops for treating posterior segment disorders is the inefficient delivery of the agent to the posterior segment sites due to the corneal and conjunctival barriers. Therefore, it is important to measure the distribution of compounds from ocular formulations in several major ocular tissues. […] This experiment used Dutch Belted rabbits. […]
Male Dutch Belted rabbits used in this experiment were purchased from Pizhou Dongfang Breeding Co., Ltd., with animal weights ranging from 1.5 to 2.5 kg. […] All prepared dosing formulations were freshly prepared on the day of administration, sampled, and the actual concentration of the dosing formulation was determined.
On the day of the experiment, animals were administered 1 mg/mL (0.05 mg/eye, 50 µL/eye). […] The concentrations of each analyte in rabbit ocular tissues and plasma obtained in this experiment were determined using an LC-MS/MS analytical method. […] BLOQ (Below the Limit of Quantification) is the lowest analyte concentration that can be quantified with acceptable precision and accuracy. […]

[4] = molecular target: T1, EGFR (Homo sapiens, UniProt P00533); test: Kinase inhibitory activity, Mobility Shift Assay (EGFR); assay type: biochemical
T1 construct: purchased Carna 08-115
T1 sequence (P00533 25-1210): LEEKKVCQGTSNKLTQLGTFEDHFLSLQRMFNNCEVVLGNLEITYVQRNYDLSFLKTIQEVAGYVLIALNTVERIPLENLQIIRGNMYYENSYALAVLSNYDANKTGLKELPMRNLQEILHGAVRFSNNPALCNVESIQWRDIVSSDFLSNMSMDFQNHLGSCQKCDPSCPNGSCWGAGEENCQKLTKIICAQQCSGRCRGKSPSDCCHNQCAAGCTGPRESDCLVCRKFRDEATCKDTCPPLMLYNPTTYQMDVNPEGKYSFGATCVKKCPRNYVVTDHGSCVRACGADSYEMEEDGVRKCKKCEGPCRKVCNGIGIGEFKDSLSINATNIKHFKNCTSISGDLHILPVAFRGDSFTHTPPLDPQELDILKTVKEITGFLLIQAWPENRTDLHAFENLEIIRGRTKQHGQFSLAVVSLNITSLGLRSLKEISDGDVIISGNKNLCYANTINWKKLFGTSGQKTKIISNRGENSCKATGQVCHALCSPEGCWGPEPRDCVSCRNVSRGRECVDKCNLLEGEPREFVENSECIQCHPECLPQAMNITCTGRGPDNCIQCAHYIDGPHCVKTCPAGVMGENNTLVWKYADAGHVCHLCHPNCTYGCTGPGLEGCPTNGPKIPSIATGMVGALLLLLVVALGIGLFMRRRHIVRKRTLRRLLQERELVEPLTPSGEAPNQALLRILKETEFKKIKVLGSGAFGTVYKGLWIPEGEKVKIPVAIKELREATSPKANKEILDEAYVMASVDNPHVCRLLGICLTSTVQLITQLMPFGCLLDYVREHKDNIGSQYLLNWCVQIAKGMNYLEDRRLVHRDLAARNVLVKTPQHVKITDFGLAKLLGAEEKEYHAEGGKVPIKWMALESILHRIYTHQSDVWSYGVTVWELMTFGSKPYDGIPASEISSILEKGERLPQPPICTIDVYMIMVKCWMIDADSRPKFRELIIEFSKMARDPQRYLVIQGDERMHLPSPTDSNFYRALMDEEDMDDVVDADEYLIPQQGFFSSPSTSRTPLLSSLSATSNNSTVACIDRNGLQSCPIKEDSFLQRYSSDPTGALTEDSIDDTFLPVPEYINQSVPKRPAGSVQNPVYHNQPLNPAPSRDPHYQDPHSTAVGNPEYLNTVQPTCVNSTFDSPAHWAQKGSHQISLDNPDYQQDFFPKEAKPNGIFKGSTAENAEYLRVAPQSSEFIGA
Outline: (§1)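 Each kinase pre-incubated 10 min at room temperature, then FAM-labelled peptide with MgCl2 and ATP added; reaction at 28 °C for kinase-dependent times before stop. Substrate conversion read by mobility shift; IC50 from a four-parameter fit of % inhibition against log concentration.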

[5] = molecular target: T2, VEGFR2 autophosphorylation (pVEGFR2) in HUVEC cells (Homo sapiens, UniProt P35968); test: Inhibition of VEGF-induced VEGFR2 phosphorylation in HUVEC cells (ELISA); assay type: cell-based; conditions: 50 ng/mL human VEGF, compound 1 hour
T2 construct: endogenous in cells; host or cells: HUVEC
T2 sequence (P35968 20-1356): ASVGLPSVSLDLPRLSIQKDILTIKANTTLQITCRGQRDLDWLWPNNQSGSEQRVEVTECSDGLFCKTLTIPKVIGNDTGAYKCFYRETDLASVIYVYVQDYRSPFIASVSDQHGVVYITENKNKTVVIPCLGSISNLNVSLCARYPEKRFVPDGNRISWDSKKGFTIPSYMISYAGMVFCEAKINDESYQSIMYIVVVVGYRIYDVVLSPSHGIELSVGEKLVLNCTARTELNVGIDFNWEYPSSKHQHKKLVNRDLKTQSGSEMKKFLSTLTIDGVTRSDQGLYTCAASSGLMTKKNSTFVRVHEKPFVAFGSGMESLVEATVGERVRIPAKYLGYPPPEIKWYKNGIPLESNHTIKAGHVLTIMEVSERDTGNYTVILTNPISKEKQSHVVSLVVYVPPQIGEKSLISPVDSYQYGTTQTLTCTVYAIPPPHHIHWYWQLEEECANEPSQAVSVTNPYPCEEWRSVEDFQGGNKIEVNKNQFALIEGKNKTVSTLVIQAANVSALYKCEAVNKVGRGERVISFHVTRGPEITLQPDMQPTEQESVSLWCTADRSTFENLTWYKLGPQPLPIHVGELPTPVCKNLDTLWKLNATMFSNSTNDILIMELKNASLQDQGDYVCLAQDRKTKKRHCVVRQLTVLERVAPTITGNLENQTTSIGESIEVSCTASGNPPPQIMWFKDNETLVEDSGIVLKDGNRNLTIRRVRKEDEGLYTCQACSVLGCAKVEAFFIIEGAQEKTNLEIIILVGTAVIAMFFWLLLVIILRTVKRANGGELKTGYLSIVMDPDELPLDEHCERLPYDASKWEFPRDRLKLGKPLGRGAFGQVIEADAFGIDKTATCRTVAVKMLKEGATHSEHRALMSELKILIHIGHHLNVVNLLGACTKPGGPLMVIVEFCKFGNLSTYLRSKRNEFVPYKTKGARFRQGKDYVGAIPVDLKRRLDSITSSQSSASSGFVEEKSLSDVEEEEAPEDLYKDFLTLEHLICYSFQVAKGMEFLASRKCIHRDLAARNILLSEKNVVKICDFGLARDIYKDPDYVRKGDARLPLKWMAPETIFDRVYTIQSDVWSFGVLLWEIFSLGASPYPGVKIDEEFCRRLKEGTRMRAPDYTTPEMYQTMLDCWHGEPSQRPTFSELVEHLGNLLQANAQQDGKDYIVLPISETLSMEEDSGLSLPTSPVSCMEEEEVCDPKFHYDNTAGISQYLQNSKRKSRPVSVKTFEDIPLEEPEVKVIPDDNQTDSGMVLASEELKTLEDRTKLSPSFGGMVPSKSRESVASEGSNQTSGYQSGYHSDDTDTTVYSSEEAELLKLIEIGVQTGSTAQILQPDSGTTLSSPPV
Description: Assay for Compound Inhibition of VEGFR2 Phosphorylation in HUVEC Cells
VEGF is a potent growth factor that promotes angiogenesis and vascular permeability. Vascular endothelial growth factor receptor 2 (VEGFR2) is the primary receptor for VEGF-induced endothelial cell signaling. Upon ligand binding, VEGFR2 undergoes autophosphorylation and is activated. The primary function from VEGFR2 signaling is to induce blood vessel formation during development and after tissue injury, and to bypass blocked vessels. Pathologically, VEGF and VEGFR2 are involved in tumor angiogenesis and vascular leakage. They are considered major players in many different cancers and ocular diseases accompanied by pathological neovascularization. This assay uses ELISA to measure the compound's ability to inhibit VEGF-induced VEGFR2 autophosphorylation (pVEGFR2) in HUVEC cells. Table 7. Reagents and Instruments
Before cell seeding, cells reached 60%-80% confluency in cell culture flasks. The cell suspension was diluted with pre-warmed complete medium to 4.5×10^6 cells/mL. 80 microliters of cell suspension was added to all wells of a 96-well cell plate (Corning-3599); incubated overnight at 37°C and 5% CO2. Compound powder was dissolved in DMSO to 10 mM and stored in a nitrogen cabinet. Compound dilution master plate: In a 96-well V-bottom plate (Axygen- WIPP02280), reference compound Ponatinib or test compound concentrations were added, starting from 5 mM (5 microliters of 10 mM compound solution plus 5 microliters DMSO) with 3-fold serial dilutions for a total of 8 concentration points. […] 20 microliters of diluted compound was transferred from the intermediate plate to the cell plate. The cell plate was then incubated at 37°C and 5% CO2 for 1 hour. […] It was gently shaken for 30 seconds, and the absorbance was measured within 30 minutes using a SpectraMax® 340 PC 384 Absorbance Microplate Reader, reading the optical density value at 450 nm. […]
All other values are expressed as a percentage of these controls (inhibition rate). […]

[6] = molecular target: T3, VEGFR2 (Homo sapiens, UniProt P35968); test: Kinase inhibitory activity, Mobility Shift Assay (VEGFR2); assay type: biochemical
T3 construct: purchased Carna 08-191
T3 sequence (P35968 20-1356): as above
Outline: as §1

[7] = Ophthalmic formulations based on polyethylene glycol series vehicles: composition and state (Example 7); assay type: physicochemical; conditions: Table 15: 10 mg/mL; Polyethylene glycol 400 10, Hydroxypropyl-β-cyclodextrin 10, Gellan Gum Gelrite 0.3, Poloxamer 188 1, Tris solution and Citric acid
Description: In the following ophthalmic formulation preparation examples, "solution" refers to a clear, transparent liquid without visible insoluble matter. "Near-clear solution" refers to a liquid that appears close to a solution upon visual observation but may contain a small amount of insoluble particles or have a slightly opaque color. "Suspension" refers to a liquid that is visibly turbid or opaque. "Gel" refers to a completely or partially gel-like solid.
Example 7: Ophthalmic Formulations Based on Polyethylene Glycol Series Vehicles
According to the formulation composition shown in the tables below, weigh the compound powder, add it to polyethylene glycol 400, and sonicate until dissolved or nearly dissolved (heat to 50°C if necessary). Add this to a Tris-HCl buffer solution containing hydroxypropyl-β-cyclodextrin, poloxamer 188, and gellan gum (or other viscosity modifier), vortex to mix, and prepare into an eye drop formulation.

[8] = test system: melanin; test: Compound binding to melanin; assay type: in vitro ADME; conditions: cuttlefish (Sepia officinalis), melanin suspension (1 mg/mL), percentage of free drug (not bound to melanin), 2 µM compound, melanin 1 mg/mL in PBS pH 7.4, 37°C
Outline: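 Compound at 2 µM final incubated with 1 mg/mL Sepia melanin in PBS pH 7.4, 37°C, 2 hours with shaking; blank in PBS with 0.1% BSA. Supernatant concentration by LC-MS/MS. Fb = 100 − (Ctest/Ccontrol) × 100%.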

SMILES	solubility thermodynamic at 8 h [1] [µg/mL]	solubility [2] [µg/mL]	drug concentration in retina [3]	pIC50 [4]	pIC50 [5]	pIC50 [6]	State Description: pH [7]	State Description: state [7]	fraction unbound at 2 h, 2 µM [8]
CNC(=O)c1ccccc1Sc1ccc2c(/C=C/c3ccccn3)n[nH]c2c1 [Axitinib]	< 2	< 2	below the lower limit of quantification; also recorded: below BLOQ	–	–	–	–	–	–
CCN(CC)CCc1ccc(/C=C/c2n[nH]c3cc(Sc4ccccc4C(=O)NC4CC4)ccc23)nc1 [Compound I-77, N-cyclopropyl-2-({3-[(E)-2-{5-[2-(diethylamino)ethyl]pyridin-2-yl}ethenyl]-1H-indazol-6-yl}sulfanyl)benzamide]	–	–	–	4.22 to 5.22	≥ 9.00	≥ 9.00	~5.5	gel	0.01 to 0.05
